# Measurements: US20080207643A1, “Composition for Treating Hyperlipaemia” (priority 2004, published 2008)
# Columns and labels:
# hyperlipemia rat model [1] = test: Comparison of the different formulations of acipimox in combination with atorvastatin calcium on hyperlipemia of rats; assay type: in vivo, Wistar rats; details: comparison test, gavage 14 days
# From the text: The level of serum total cholesterol level was respectively measured before grouping, and then randomly grouping by following the balance principle. Each group included 10 rats.
# hyperlipemia model rats = test: Effects on the activity of seroenzyme (alanine transaminase, creatine kinase) in the model rats; details: for Alanine transaminase / Creatine kinase: serum of model rats, gavage 14 days
# Procedure: Hyperlipemia rat model was established by inducing hyperlipemia with high lipid containing feed. The formulation of high lipid containing feed was as follows: basic feed 86.3%, cholesterol 3%, lard 10%, methylthiouracil 0.2% and porcine bile salt 0.5%, and were allowed to be mixed uniformly. The rats were continuously fed for 2 weeks. During the administration of drugs, high lipid containing feed was administered every other day.
# The serum bio-chemical index includes total cholesterol (TC), alanine transaminase (ALT), creatine kinase (CK), triglyceride (TG), low density lipoprotein-cholesterol (LDL-C), high density lipoprotein-cholesterol (LDL-C). The reagents for measuring alanine transaminase (ALT) and creatine kinase (CK) were produced by Beijing Zhongsheng High-Tech Bioengineering Company, and SABA/18 Automatic Biochemical Analyzer was used for measurement. Other reagents were produced by Roche Inc., Japan, and Hitachi 7020 Automatic Biochemical Analyzer was used for measurement. The measuring methods are based on the specifications of the reagents, and the rats were fasted for 16 hours before collecting blood.
# The administering route intended for the clinical application is oral administration, and thus gavage administration was used in the present experiment for continuous 14 days. Gavage administration was conducted on the rats after feeding, once per day. The dosing volume is 0.3 ml/100 g of body weight.
# normal rats = test: Effects on the blood lipid level in the normal rats; assay type: in vivo, Wistar rats; details: gavage 4 days
# Procedure: Wistar rats, bred by the Medical Experimental Animal Centre of Chinese Academy of Military Medical Sciences, certificate No. […] By calculating in accordance with the principle of dosage equivalent per body surface area, the above mentioned generally used dosage for human was converted into the dosage for rats of about 50 mg/kg/day. […] By calculating in accordance with the principle of dosage equivalent per body surface area, the above mentioned generally used dosage for human was converted into the dosage for rats of about 0.85 mg/kg/day.
# [2] = cited from earlier work
# hyperlipemia rat model [3] = test: Effects on the blood lipid level in hyperlipemia model rats (high lipid containing feed); assay type: in vivo, Wistar rats; details: gavage 14 days
# From the text: Each group included 10 rats. […] The measurement is the same as the experiment conducted on normal rats as described in section 5.4.
# hyperlipemia patients = details: 80 mg/d, 22 hyperlipemia patients; cited from earlier work
smiles,measurement,setting,value
"Cc1cnc(C(=O)O)c[n+]1[O-] [Acipimox, acipimox]",High density lipoprotein-cholesterol,hyperlipemia rat model [1]; acipimox 200 mg/kg,4.20 ± 1.10 mmol/L
same,Low density lipoprotein-cholesterol,hyperlipemia rat model [1]; acipimox 200 mg/kg,7.27 ± 1.83 mmol/L
same,Total cholesterol in serum,hyperlipemia rat model [1]; acipimox 200 mg/kg,10.31 ± 1.67 mmol/L
same,Triglyceride in serum,hyperlipemia rat model [1]; acipimox 200 mg/kg,1.79 ± 0.63 mmol/L
same,High density lipoprotein-cholesterol,hyperlipemia rat model [1]; acipimox 300 mg/kg,4.54 ± 0.52 mmol/L
same,Low density lipoprotein-cholesterol,hyperlipemia rat model [1]; acipimox 300 mg/kg,6.96 ± 1.23 mmol/L
same,Total cholesterol in serum,hyperlipemia rat model [1]; acipimox 300 mg/kg,8.69 ± 1.88 mmol/L
same,Triglyceride in serum,hyperlipemia rat model [1]; acipimox 300 mg/kg,1.68 ± 0.56 mmol/L
same,levels of alanine transaminase and creatine kinase in serum in comparison with the model control group,"hyperlipemia model rats; model rats, 14 days, acipimox 100 to 400 mg/kg, P>0.05",not remarkably different
same,Alanine transaminase,hyperlipemia model rats; acipimox 100 mg/kg,640.3 ± 117.6 nmol/s/L
same,Creatine kinase,hyperlipemia model rats; acipimox 100 mg/kg,361.4 ± 106.4 U/L
same,Alanine transaminase,hyperlipemia model rats; acipimox 200 mg/kg,645.4 ± 124.9 nmol/s/L
same,Creatine kinase,hyperlipemia model rats; acipimox 200 mg/kg,354.4 ± 110.9 U/L
same,Alanine transaminase,hyperlipemia model rats; acipimox 300 mg/kg,655.5 ± 110.5 nmol/s/L
same,Creatine kinase,hyperlipemia model rats; acipimox 300 mg/kg,380.33 ± 120.1 U/L
same,Alanine transaminase,hyperlipemia model rats; acipimox 400 mg/kg,642.8 ± 114.2 nmol/s/L
same,Creatine kinase,hyperlipemia model rats; acipimox 400 mg/kg,377.3 ± 103.4 U/L
same,High density lipoprotein-cholesterol,normal rats; acipimox 100 mg/kg,0.97 ± 0.16 mmol/L
same,Low density lipoprotein-cholesterol,normal rats; acipimox 100 mg/kg,0.32 ± 0.12 mmol/L
same,Total cholesterol in serum,normal rats; acipimox 100 mg/kg,1.60 ± 0.35 mmol/L
same,Triglyceride in serum,normal rats; acipimox 100 mg/kg,0.71 ± 0.27 mmol/L
same,High density lipoprotein-cholesterol,normal rats; acipimox 200 mg/kg,0.98 ± 0.23 mmol/L
same,Low density lipoprotein-cholesterol,normal rats; acipimox 200 mg/kg,0.26 ± 0.11 mmol/L
same,Total cholesterol in serum,normal rats; acipimox 200 mg/kg,1.55 ± 0.28 mmol/L
same,Triglyceride in serum,normal rats; acipimox 200 mg/kg,0.69 ± 0.33 mmol/L
same,High density lipoprotein-cholesterol,normal rats; acipimox 300 mg/kg,1.15 ± 0.26 mmol/L
same,Low density lipoprotein-cholesterol,normal rats; acipimox 300 mg/kg,0.29 ± 0.11 mmol/L
same,Total cholesterol in serum,normal rats; acipimox 300 mg/kg,1.51 ± 0.26 mmol/L
same,Triglyceride in serum,normal rats; acipimox 300 mg/kg,0.63 ± 0.28 mmol/L
same,High density lipoprotein-cholesterol,normal rats; acipimox 400 mg/kg,1.18 ± 0.13 mmol/L
same,Low density lipoprotein-cholesterol,normal rats; acipimox 400 mg/kg,0.24 ± 0.14 mmol/L
same,Total cholesterol in serum,normal rats; acipimox 400 mg/kg,1.49 ± 0.28 mmol/L
same,Triglyceride in serum,normal rats; acipimox 400 mg/kg,0.57 ± 0.36 mmol/L
same,combination with plasma protein,[2]; in vivo,does not combine with plasma protein
same,excretion and metabolism,[2]; in vivo,"excreted mainly in the form of Acipimox itself, without being metabolized"
same,half life,[2]; oral administration,2 h
same,time to the peak of plasma concentration after administration,[2]; oral administration,≤ 2 h
same,High density lipoprotein-cholesterol,hyperlipemia rat model [3]; acipimox 100 mg/kg,3.95 ± 0.63 mmol/L
same,Low density lipoprotein-cholesterol,hyperlipemia rat model [3]; acipimox 100 mg/kg,8.44 ± 1.06 mmol/L
same,Total cholesterol in serum,hyperlipemia rat model [3]; acipimox 100 mg/kg,13.18 ± 2.31 mmol/L
same,Triglyceride in serum,hyperlipemia rat model [3]; acipimox 100 mg/kg,1.98 ± 0.42 mmol/L
same,High density lipoprotein-cholesterol,hyperlipemia rat model [3]; acipimox 200 mg/kg,4.35 ± 0.55 mmol/L
same,Low density lipoprotein-cholesterol,hyperlipemia rat model [3]; acipimox 200 mg/kg,8.23 ± 0.40 mmol/L
same,Total cholesterol in serum,hyperlipemia rat model [3]; acipimox 200 mg/kg,10.82 ± 3.05 mmol/L
same,Triglyceride in serum,hyperlipemia rat model [3]; acipimox 200 mg/kg,1.78 ± 0.55 mmol/L
same,High density lipoprotein-cholesterol,hyperlipemia rat model [3]; acipimox 300 mg/kg,4.56 ± 0.50 mmol/L
same,Low density lipoprotein-cholesterol,hyperlipemia rat model [3]; acipimox 300 mg/kg,7.79 ± 0.89 mmol/L
same,Total cholesterol in serum,hyperlipemia rat model [3]; acipimox 300 mg/kg,10.73 ± 2.36 mmol/L
same,Triglyceride in serum,hyperlipemia rat model [3]; acipimox 300 mg/kg,1.69 ± 0.51 mmol/L
same,High density lipoprotein-cholesterol,hyperlipemia rat model [3]; acipimox 400 mg/kg,4.70 ± 0.58 mmol/L
same,Low density lipoprotein-cholesterol,hyperlipemia rat model [3]; acipimox 400 mg/kg,7.65 ± 0.40 mmol/L
same,Total cholesterol in serum,hyperlipemia rat model [3]; acipimox 400 mg/kg,11.18 ± 2.47 mmol/L
same,Triglyceride in serum,hyperlipemia rat model [3]; acipimox 400 mg/kg,1.72 ± 0.54 mmol/L
"CC(C)c1c(C(=O)Nc2ccccc2)c(-c2ccccc2)c(-c2ccc(F)cc2)n1CC[C@@H](O)C[C@@H](O)CC(=O)O [Atorvastatin calcium, calcium [R-(R′,R′)]2-(4-fluorophenyl)-βδ-dihydroxyl-5-(1-methylethyl)-3-phenyl-4-[aniline]carbonyl]-1-hydro-pyrrolyl-1-heptanoate trihydrate]",Total cholesterol in serum,hyperlipemia rat model [1]; atorvastatin calcium 10 mg/kg,10.20 ± 1.62 mmol/L
same,Triglyceride in serum,hyperlipemia rat model [1]; atorvastatin calcium 10 mg/kg,1.56 ± 0.62 mmol/L
same,Total cholesterol in serum,hyperlipemia rat model [1]; atorvastatin calcium 20 mg/kg,9.65 ± 2.22 mmol/L
same,Triglyceride in serum,hyperlipemia rat model [1]; atorvastatin calcium 20 mg/kg,1.47 ± 0.56 mmol/L
same,Total cholesterol in serum,normal rats; atorvastatin calcium 5 mg/kg,1.64 ± 0.30 mmol/L
same,Triglyceride in serum,normal rats; atorvastatin calcium 5 mg/kg,0.67 ± 0.28 mmol/L
same,Total cholesterol in serum,normal rats; atorvastatin calcium 10 mg/kg,1.52 ± 0.31 mmol/L
same,Triglyceride in serum,normal rats; atorvastatin calcium 10 mg/kg,0.65 ± 0.33 mmol/L
same,Total cholesterol in serum,normal rats; atorvastatin calcium 20 mg/kg,1.46 ± 0.24 mmol/L
same,Triglyceride in serum,normal rats; atorvastatin calcium 20 mg/kg,0.55 ± 0.16 mmol/L
same,Total cholesterol in serum,normal rats; atorvastatin calcium 30 mg/kg,1.41 ± 0.29 mmol/L
same,Triglyceride in serum,normal rats; atorvastatin calcium 30 mg/kg,0.51 ± 0.18 mmol/L
same,Total cholesterol in serum,hyperlipemia rat model [3]; atorvastatin calcium 5 mg/kg,12.45 ± 2.67 mmol/L
same,Triglyceride in serum,hyperlipemia rat model [3]; atorvastatin calcium 5 mg/kg,1.93 ± 0.52 mmol/L
same,Total cholesterol in serum,hyperlipemia rat model [3]; atorvastatin calcium 10 mg/kg,11.23 ± 2.12 mmol/L
same,Triglyceride in serum,hyperlipemia rat model [3]; atorvastatin calcium 10 mg/kg,1.80 ± 0.28 mmol/L
same,Total cholesterol in serum,hyperlipemia rat model [3]; atorvastatin calcium 20 mg/kg,10.27 ± 2.67 mmol/L
same,Triglyceride in serum,hyperlipemia rat model [3]; atorvastatin calcium 20 mg/kg,1.72 ± 0.47 mmol/L
same,Total cholesterol in serum,hyperlipemia rat model [3]; atorvastatin calcium 30 mg/kg,9.91 ± 2.65 mmol/L
same,Triglyceride in serum,hyperlipemia rat model [3]; atorvastatin calcium 30 mg/kg,1.78 ± 0.55 mmol/L
same,decreases the activity of coagulation factor VII,hyperlipemia patients,8%
same,decreases the coagulation rate of platelet induced by thromboxane A2 (TXA2),hyperlipemia patients,11%
